Test results reported in patent publication US20070066672A1, “Benzimidazole derivatives and use thereof as peptide deformylase inhibitors” (Arpida A/S, priority 2003, published 2007).

Columns and labels:
[1] = target: T1, Peptide Deformylase (PDF) (Escherichia coli, UniProt P0A6K3); assay: Bacterial peptide deformylase (PDF) assay, colorimetric cell free, enzyme from E. coli; type: biochemical
T1 construct: made in house
Source text: (§1) To find inhibitors of Peptide Deformylase (PDF), a colorimetric cell free assay for measuring the enzymatic activity of PDF has been adapted to the microtiter plate format (96 wells). The assay comprises three components, purified PDF, f-Met-Ala as substrate and TNBS as the detecting agent of primary amino groups. The resulting TNP_NH-Met-Ala sulfite complex can be detected at 420 nm. PDF enzymes, containing Fe^2+ as the native metal, are purified and are stabilized by the addition of tris(2-carboxyethyl)phosphine (TCEP).
(§2) The IC50 value of a compound of the invention as a bacterial PDF inhibitor was determined using the following assay.
(§3) Assay buffer 0.1 M MOPS pH was adjusted to 7.2 with NaOH, containing 0.25 M NaCl, 100 μg/mL catalase and 1 mg/mL BSA.
(§4) E. coli enzyme (2.5 mg/ml) 10 μl+290 μl Assay buffer, 1 μl per ml enzyme mix. S. aureus (15 mg/ml) 10 μl+990 μl Assay buffer, 0.3 μl per ml enzyme mix.
(§5) Substrate mix: 10 mM f-Met-Ala was made up from 200 mM f-Met-Ala in methanol with assay buffer.
(§6) TNBS solution: Freshly dilute 1 M TNBS stock solution diluted 1:10 with water.
(§7) Buffer C: 0.5 M borate buffer adjusted to pH 9.5 with NaOH.
(§8) Buffer D: 0.2 ml of freshly prepared 0.5 M Na2SO3 was mixed with 9.8 mL of 0.5M NaH2PO4.
(§9) Inhibitor solution: 2 mM Sodium 4-(hydroxymercurio)benzoate in assay buffer.
(§10) Compound mix: Compound of formula I dissolved in DMSO in a 10 mg/mL stock solution. Further dilutions were made in DMSO in the concentration range between 0.05 to 100 mM.
(§11) The assay was performed in a 96 Microtiter plate containing test compound. To each well containing test compound mix was added 75 microliter of enzyme mix from E. coli followed by the addition of 25 microliter of substrate mix. The resulting mix was incubated for 30 minutes at room temperature with shaking. TNBS solution (50 microliter/well) was added and the resulting mixture was incubated for 15 minutes under shaking. Buffer C was then added (20 microliter/well). After incubating at room temperature for 15 minutes under shaking, buffer D was added (50 microliter/well). The optical […] was then measured at 420 nm, thereby determining the IC50 value.

[2] = target: T2, Peptide Deformylase (PDF) (Staphylococcus aureus, UniProt P68826); assay: Bacterial peptide deformylase (PDF) assay, colorimetric cell free, enzyme from S. aureus; type: biochemical; conditions: f-Met-Ala substrate, TNBS detection at 420 nm
T2 construct: made in house
T2 sequence (P68826 1-183): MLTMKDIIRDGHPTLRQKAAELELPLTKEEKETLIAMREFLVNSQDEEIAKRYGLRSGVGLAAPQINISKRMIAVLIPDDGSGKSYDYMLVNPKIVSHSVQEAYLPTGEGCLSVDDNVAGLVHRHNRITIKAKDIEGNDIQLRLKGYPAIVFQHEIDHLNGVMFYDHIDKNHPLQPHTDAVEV
Source text: as §1, §2, §3, §4, §5, §6, §7, §8, §9, §10, §11
The assay was repeated using enzyme mix from S. aureus.

T1 sequence (P0A6K3 whole entry): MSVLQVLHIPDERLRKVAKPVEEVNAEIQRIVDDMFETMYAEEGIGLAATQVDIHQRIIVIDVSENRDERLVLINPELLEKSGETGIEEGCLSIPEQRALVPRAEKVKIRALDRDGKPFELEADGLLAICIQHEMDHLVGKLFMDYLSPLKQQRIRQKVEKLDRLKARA

COC(=O)CNC(=O)c1ccc2c(c1)nc(C(CCSC)NC(=O)CCC(=O)O)n2C1CC1 (stereo not drawn) [Example 16, N-{1-[1-Cyclopropyl-5-(methoxycarbonylmethyl-carbamoyl)-1H-benzoimidazol-2-yl]-3-methylsulfanyl-propyl}-succinamic acid]
IC50 [1]: 47.2 µM | IC50 [2]: 17.6 µM

COC(=O)CNC(=O)c1ccc2c(c1)nc(C(Cc1cccc3ccccc13)NC(=O)CCC(=O)O)n2CCc1cccs1 (stereo not drawn) [Example 17, N-{1-[5-(Methoxycarbonylmethyl-carbamoyl)-1-(2-thiophen-2-yl-ethyl)-1H-benzoimidazol-2-yl]-2-naphthalen-1-yl-ethyl}-succinamic acid]
IC50 [1]: 0.071 µM | IC50 [2]: 0.099 µM

CCCCn1c(C(Cc2cccc3ccccc23)NC(=O)CCC(=O)O)nc2cc(C(=O)NCC(=O)OC)ccc21 (stereo not drawn) [Example 18]
IC50 [1]: 2.7 µM | IC50 [2]: 0.074 µM

COC(=O)CNC(=O)c1ccc2c(c1)nc(C(CCCCN)NC(=O)CCS)n2CC1CCCCC1 (stereo not drawn) [Example 19, ({2-[5-Amino-1-(3-mercapto-propionylamino)-pentyl]-1-cyclohexylmethyl-1H-benzoimidazole-5-carbonyl}-amino)-acetic acid methyl ester]
IC50 [1]: 38.1 µM | IC50 [2]: 27.1 µM

COC(=O)CNC(=O)c1ccc2c(c1)nc(C(Cc1ccc(O)cc1)NC(=O)CCS)n2C1CC1 (stereo not drawn) [Example 20, ({1-Cyclopropyl-2-[2-(4-hydroxy-phenyl)-1-(3-mercapto-propionylamino)-ethyl]-1H-benzoimidazole-5-carbonyl}-amino)-acetic acid methyl ester]
IC50 [1]: > 200 µM | IC50 [2]: > 200 µM

COC(=O)CNC(=O)c1ccc2c(c1)nc(C(Cc1ccc(O)cc1)NC(=O)CCS)n2CC1CCCCC1 (stereo not drawn) [Example 21, ({1-Cyclohexylmethyl-2-[2-(4-hydroxy-phenyl)-1-(3-mercapto-propionylamino)-ethyl]-1H-benzoimidazole-5-carbonyl}-amino)-acetic acid methyl ester]
IC50 [1]: > 200 µM | IC50 [2]: > 200 µM

COC(=O)CNC(=O)c1ccc2c(c1)nc(C(Cc1ccccc1)NC(=O)CCS)n2CCO (stereo not drawn) [Example 22, ({1-(2-Hydroxy-ethyl)-2-[1-(3-mercapto-propionylamino)-2-phenyl-ethyl]-1H-benzoimidazole-5-carbonyl}-amino)-acetic acid methyl ester]
IC50 [1]: > 200 µM | IC50 [2]: > 200 µM

COC(=O)CNC(=O)c1ccc2c(c1)nc(C(CCCCN)NC(=O)CCC(=O)O)n2CC1CCCCC1 (stereo not drawn) [Example 24, N-{5-Amino-1-[1-cyclohexylmethyl-5-(methoxycarbonylmethyl-carbamoyl)-1H-benzoimidazol-2-yl]-pentyl}-succinamic acid]
IC50 [1]: 13.1 µM | IC50 [2]: 1.4 µM

COC(=O)CNC(=O)c1ccc2c(c1)nc(C(Cc1ccc(O)cc1)NC(=O)CCC(=O)O)n2C1CC1 (stereo not drawn) [Example 25, N-[1-[1-Cyclopropyl-5-(methoxycarbonylmethyl-carbamoyl)-1H-benzoimidazol-2-yl]-2-(4-hydroxyphenyl)-ethyl]-succinamic acid]
IC50 [1]: 12.8 µM | IC50 [2]: 28.3 µM

COC(=O)CNC(=O)c1ccc2c(c1)nc(C(Cc1ccc(O)cc1)NC(=O)CCC(=O)O)n2CC1CCCCC1 (stereo not drawn) [Example 26, N-[1-[1-Cyclohexylmethyl-5-(methoxycarbonylmethyl-carbamoyl)-1H-benzoimidazol-2-yl]-2-(4-hydroxyphenyl)-ethyl]-succinamic acid]
IC50 [1]: 35.2 µM | IC50 [2]: 25 µM

COC(=O)CNC(=O)c1ccc2c(c1)nc(C(Cc1ccccc1)NC(=O)CCC(=O)O)n2CCO (stereo not drawn) [Example 27, N-{1-[1-(2-Hydroxy-ethyl)-5-(methoxycarbonylmethyl-carbamoyl)-1H-benzoimidazol-2-yl]-2-phenyl-ethyl}-succinamic acid]
IC50 [1]: 41.8 µM | IC50 [2]: 27.7 µM

COC(=O)CNC(=O)c1ccc2c(c1)nc(C(CC(C)C)NC(=O)CCC(=O)O)n2CCO (stereo not drawn) [Example 28, N-{1-[1-(2-Hydroxy-ethyl)-5-(methoxycarbonylmethyl-carbamoyl)-1H-benzoimidazol-2-yl]-3-methylbutyl}-succinamic acid]
IC50 [1]: > 200 µM | IC50 [2]: 34.4 µM

CCC(NC(=O)CCC(=O)NO)c1nc2cc(C(=O)NCC(=O)OC)ccc2n1C1CC1 (stereo not drawn) [Example 29, ({1-Cyclopropyl-2-[1-(3-hydroxycarbamoyl-propionylamino)-propyl]-1H-benzoimidazole-5-carbonyl}-amino)-acetic acid methyl ester]
IC50 [1]: 0.079 µM | IC50 [2]: 0.105 µM

CCC(NC(=O)CCC(=O)NO)c1nc2cc(C(=O)NCC(=O)OC)ccc2n1Cc1ccco1 (stereo not drawn) [Example 31, ({1-Furan-2-ylmethyl-2-[1-(3-hydroxycarbamoyl-propionylamino)-propyl]-1H-benzoimidazole-5-carbonyl}-amino)-acetic acid methyl ester]
IC50 [1]: 0.098 µM | IC50 [2]: 0.151 µM

CCC(NC(=O)CCC(=O)NO)c1nc2cc(C(=O)NCC(=O)OC)ccc2n1Cc1ccccc1 (stereo not drawn) [Example 32, ({1-Benzyl-2-[1-(3-hydroxycarbamoyl-propionylamino)-propyl]-1H-benzoimidazole-5-carbonyl}-amino)-acetic acid methyl ester]
IC50 [1]: 0.045 µM | IC50 [2]: 0.067 µM

COC(=O)CNC(=O)c1ccc2c(c1)nc(C(CCSC)NC(=O)CCC(=O)NO)n2Cc1ccccc1 (stereo not drawn) [Example 38]
IC50 [1]: 25.8 µM | IC50 [2]: 3.5 µM

COC(=O)CNC(=O)c1ccc2c(c1)nc(C(Cc1ccccc1)NC(=O)CCC(=O)NO)n2Cc1ccc(Cl)cc1 (stereo not drawn) [Example 40, ({1-(4-Chloro-benzyl)-2-[1-(3-hydroxycarbamoyl-propionylamino)-2-phenyl-ethyl]-1H-benzoimidazole-5-carbonyl}-amino)-acetic acid methyl ester]
IC50 [1]: 1.4 µM | IC50 [2]: 0.021 µM

COC(=O)CNC(=O)c1ccc2c(c1)nc(C(CCc1ccccc1)NC(=O)CCC(=O)NO)n2C1CC1 (stereo not drawn) [Example 41, ({1-Cyclopropyl-2-[1-(3-hydroxycarbamoyl-propionylamino)-3-phenyl-propyl]-1H-benzoimidazole-5-carbonyl}-amino)-acetic acid methyl ester]
IC50 [1]: 2.3 µM | IC50 [2]: 0.363 µM

COC(=O)CNC(=O)c1ccc2c(c1)nc(C(Cc1cccc3ccccc13)NC(=O)CCC(=O)NO)n2Cc1ccccc1 (stereo not drawn) [Example 46, ({1-Benzyl-2-[1-(3-hydroxycarbamoyl-propionylamino)-2-naphthalen-1-yl-ethyl]-1H-benzoimidazole-5-carbonyl}-amino)-acetic acid methyl ester]
IC50 [1]: 6.5 µM | IC50 [2]: 0.9 µM

CCCCn1c(C(Cc2ccccc2)NC(=O)CCC(=O)NO)nc2cc(C(=O)NCC(=O)OC)ccc21 (stereo not drawn) [Example 47, ({1-Butyl-2-[1-(3-hydroxycarbamoyl-propionylamino)-2-phenyl-ethyl]-1H-benzoimidazole-5-carbonyl}-amino)-acetic acid methyl ester]
IC50 [1]: 5.3 µM | IC50 [2]: 0.019 µM

COC(=O)CNC(=O)c1ccc2c(c1)nc(C(CCCCN)NC(=O)CCS)n2C1CC1 (stereo not drawn) [Example 48, ({2-[5-Amino-1-(3-mercapto-propionylamino)-pentyl]-1-cyclopropyl-1H-benzoimidazole-5-carbonyl}-amino)-acetic acid methyl ester]
IC50 [1]: 3.6 µM | IC50 [2]: 2 µM

COC(=O)CNC(=O)c1ccc2c(c1)nc(C(CCCCN)NC(=O)CCS)n2Cc1ccccc1 (stereo not drawn) [Example 49, ({2-[5-Amino-1-(3-mercapto-propionylamino)-pentyl]-1-benzyl-1H-benzoimidazole-5-carbonyl}-amino)-acetic acid methyl ester]
IC50 [1]: 5.2 µM | IC50 [2]: 2.4 µM

COC(=O)CNC(=O)c1ccc2c(c1)nc(C(Cc1ccccc1)NC(=O)CCS)n2CCN (stereo not drawn) [Example 50, ({1-(2-Amino-ethyl)-2-[1-(3-mercapto-propionylamino)-2-phenyl-ethyl]-1H-benzoimidazole-5-carbonyl}-amino)-acetic acid methyl ester]
IC50 [1]: 7.2 µM | IC50 [2]: 3.8 µM

COC(=O)CNC(=O)c1ccc2c(c1)nc(C(Cc1ccccc1)NC(=O)CCC(=O)NO)n2CCN (stereo not drawn) [Example 56, ({1-(2-Amino-ethyl)-2-[1-(3-hydroxycarbamoyl-propionylamino)-2-phenyl-ethyl]-1H-benzoimidazole-5-carbonyl}-amino)-acetic acid methyl ester]
IC50 [1]: 2 µM | IC50 [2]: 1.6 µM
